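48-hour exposure; five concentrations; linearly interpolated endpoints. Here, GI50 denotes the concentration required for 50% inhibition of growth. Definition used: TGI = concentration required for complete inhibition of growth.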
How the values were obtained:
Assay in all cases: NCI tumour cell line growth inhibition, 48 h
SK-MEL-5 melanoma = tested on: SK-MEL-5 melanoma
NCI-H226 lung = tested on: NCI-H226 lung
A549 NSCLC = tested on: A549 NSCLC
LOX IMVI melanoma = tested on: LOX IMVI melanoma
HOP-92 NSCLC = tested on: HOP-92 NSCLC
OVCAR-3 ovarian = tested on: OVCAR-3 ovarian
NCI-H23 lung = tested on: NCI-H23 lung
HT29 colon = tested on: HT29 colon
UACC-62 melanoma = tested on: UACC-62 melanoma
HOP-62 NSCLC = tested on: HOP-62 NSCLC
MCF7 breast = tested on: MCF7 breast
SR leukemia = tested on: SR leukemia
SK-OV-3 ovarian = tested on: SK-OV-3 ovarian
SNB-75 CNS = tested on: SNB-75 CNS
SN12C renal = tested on: SN12C renal
CCRF-CEM leukemia = tested on: CCRF-CEM leukemia
NCI-H522 lung = tested on: NCI-H522 lung
786-0 renal = tested on: 786-0 renal
SF-295 CNS = tested on: SF-295 CNS
HCT-15 colon = tested on: HCT-15 colon
U251 CNS = tested on: U251 CNS
A498 renal = tested on: A498 renal
OVCAR-5 ovarian = tested on: OVCAR-5 ovarian
HCT-116 colon = tested on: HCT-116 colon
OVCAR-4 ovarian = tested on: OVCAR-4 ovarian
K-562 leukemia = tested on: K-562 leukemia
T-47D breast = tested on: T-47D breast
SW-620 colon = tested on: SW-620 colon
EKVX NSCLC = tested on: EKVX NSCLC
DU-145 prostate = tested on: DU-145 prostate
SF-268 CNS = tested on: SF-268 CNS
MALME-3M melanoma = tested on: MALME-3M melanoma
RXF 393 renal = tested on: RXF 393 renal
OVCAR-8 ovarian = tested on: OVCAR-8 ovarian
HS 578T breast = tested on: HS 578T breast
SK-MEL-2 melanoma = tested on: SK-MEL-2 melanoma
M14 melanoma = tested on: M14 melanoma
MDA-MB-468 breast = tested on: MDA-MB-468 breast
NCI/ADR-RES ovarian = tested on: NCI/ADR-RES ovarian
CAKI-1 renal = tested on: CAKI-1 renal
UO-31 renal = tested on: UO-31 renal
MDA-MB-231 breast = tested on: MDA-MB-231 breast
IGROV1 ovarian = tested on: IGROV1 ovarian
MDA-MB-435 = tested on: MDA-MB-435
ACHN renal = tested on: ACHN renal
SK-MEL-28 melanoma = tested on: SK-MEL-28 melanoma
KM12 colon = tested on: KM12 colon
UACC-257 melanoma = tested on: UACC-257 melanoma
MOLT-4 leukemia = tested on: MOLT-4 leukemia
BT-549 breast = tested on: BT-549 breast
PC-3 prostate = tested on: PC-3 prostate
COLO 205 colon = tested on: COLO 205 colon
HL-60(TB) leukemia = tested on: HL-60(TB) leukemia
RPMI-8226 leukemia = tested on: RPMI-8226 leukemia
HCC-2998 colon = tested on: HCC-2998 colon
TK-10 renal = tested on: TK-10 renal
NCI-H460 lung = tested on: NCI-H460 lung
SNB-19 CNS = tested on: SNB-19 CNS
SF-539 CNS = tested on: SF-539 CNS

Question: How did the GI50 (SK-MEL-5 melanoma) turn out when `O=Cc1cncc(-c2ccc3ncnc(N4CCc5cc(F)c(Cl)cc54)c3c2)c1` was run?
Answer: 4.38 µM

Question: What about the TGI (SK-MEL-5 melanoma) of the same compound?
Answer: 17.6 µM

Question: What about the GI50 (NCI-H226 lung) of the same compound?
Answer: 5.1 µM

Question: What about the TGI (NCI-H226 lung) of the same compound?
Answer: 23.9 µM

Question: And the GI50 (A549 NSCLC)?
Answer: 2.64 µM

Question: What about the TGI (A549 NSCLC) of the same compound?
Answer: 17.1 µM

Question: What about the GI50 (LOX IMVI melanoma) of the same compound?
Answer: 3.68 µM

Question: What about the TGI (LOX IMVI melanoma) of the same compound?
Answer: 17.4 µM

Question: And the GI50 (HOP-92 NSCLC)?
Answer: 1.86 µM

Question: What about the TGI (HOP-92 NSCLC) of the same compound?
Answer: 11.9 µM

Question: What about the GI50 (OVCAR-3 ovarian) of the same compound?
Answer: 2.26 µM

Question: What about the TGI (OVCAR-3 ovarian) of the same compound?
Answer: 34.9 µM

Question: What about the GI50 (NCI-H23 lung) of the same compound?
Answer: 10.2 µM

Question: And the TGI (NCI-H23 lung)?
Answer: 27.1 µM

Question: What about the GI50 (HT29 colon) of the same compound?
Answer: 11.1 µM

Question: What about the TGI (HT29 colon) of the same compound?
Answer: 34.8 µM

Question: What about the GI50 (UACC-62 melanoma) of the same compound?
Answer: 2.02 µM

Question: And the TGI (UACC-62 melanoma)?
Answer: 12.4 µM

Question: What about the GI50 (HOP-62 NSCLC) of the same compound?
Answer: 2.47 µM

Question: What about the TGI (HOP-62 NSCLC) of the same compound?
Answer: 26 µM

Question: And the GI50 (MCF7 breast)?
Answer: 1.64 µM

Question: What about the TGI (MCF7 breast) of the same compound?
Answer: 7.38 µM

Question: And the GI50 (SR leukemia)?
Answer: 3.77 µM

Question: And the TGI (SR leukemia)?
Answer: 23.7 µM

Question: And the GI50 (SK-OV-3 ovarian)?
Answer: 2.66 µM

Question: And the TGI (SK-OV-3 ovarian)?
Answer: 9.59 µM

Question: And the GI50 (SNB-75 CNS)?
Answer: 1 µM

Question: What about the TGI (SNB-75 CNS) of the same compound?
Answer: 10 µM

Question: And the GI50 (SN12C renal)?
Answer: 2.71 µM

Question: And the TGI (SN12C renal)?
Answer: 21.2 µM

Question: And the GI50 (CCRF-CEM leukemia)?
Answer: 3.08 µM

Question: What about the TGI (CCRF-CEM leukemia) of the same compound?
Answer: 14.9 µM

Question: What about the GI50 (NCI-H522 lung) of the same compound?
Answer: 11 µM

Question: And the TGI (NCI-H522 lung)?
Answer: 30.6 µM

Question: What about the GI50 (786-0 renal) of the same compound?
Answer: 2.11 µM

Question: And the TGI (786-0 renal)?
Answer: 16.1 µM

Question: What about the GI50 (SF-295 CNS) of the same compound?
Answer: 3.98 µM

Question: What about the TGI (SF-295 CNS) of the same compound?
Answer: 21.5 µM

Question: What about the GI50 (HCT-15 colon) of the same compound?
Answer: 3.41 µM

Question: What about the TGI (HCT-15 colon) of the same compound?
Answer: 17.2 µM

Question: What about the GI50 (U251 CNS) of the same compound?
Answer: 11.1 µM

Question: What about the TGI (U251 CNS) of the same compound?
Answer: 34 µM

Question: What about the GI50 (A498 renal) of the same compound?
Answer: 0.898 µM

Question: What about the TGI (A498 renal) of the same compound?
Answer: 6.88 µM

Question: What about the GI50 (OVCAR-5 ovarian) of the same compound?
Answer: 4.01 µM

Question: And the TGI (OVCAR-5 ovarian)?
Answer: 22.1 µM

Question: And the GI50 (HCT-116 colon)?
Answer: 5.41 µM

Question: What about the TGI (HCT-116 colon) of the same compound?
Answer: 20.4 µM

Question: And the GI50 (OVCAR-4 ovarian)?
Answer: 5.18 µM

Question: And the TGI (OVCAR-4 ovarian)?
Answer: 41.1 µM

Question: And the GI50 (K-562 leukemia)?
Answer: 7.74 µM

Question: What about the TGI (K-562 leukemia) of the same compound?
Answer: > 100 µM

Question: And the GI50 (T-47D breast)?
Answer: 1.31 µM

Question: And the TGI (T-47D breast)?
Answer: 11.1 µM

Question: What about the GI50 (SW-620 colon) of the same compound?
Answer: 10.3 µM

Question: And the TGI (SW-620 colon)?
Answer: 26.1 µM

Question: And the GI50 (EKVX NSCLC)?
Answer: 1.25 µM

Question: And the TGI (EKVX NSCLC)?
Answer: 8.09 µM

Question: And the GI50 (DU-145 prostate)?
Answer: 3.93 µM

Question: And the TGI (DU-145 prostate)?
Answer: > 100 µM

Question: And the GI50 (SF-268 CNS)?
Answer: 5.14 µM

Question: And the TGI (SF-268 CNS)?
Answer: > 100 µM

Question: And the GI50 (MALME-3M melanoma)?
Answer: 2.72 µM

Question: And the TGI (MALME-3M melanoma)?
Answer: 18.6 µM

Question: And the GI50 (RXF 393 renal)?
Answer: 1.23 µM

Question: What about the TGI (RXF 393 renal) of the same compound?
Answer: 4.32 µM

Question: And the GI50 (OVCAR-8 ovarian)?
Answer: 4.71 µM

Question: And the TGI (OVCAR-8 ovarian)?
Answer: 46.3 µM

Question: And the GI50 (HS 578T breast)?
Answer: 1.74 µM

Question: And the TGI (HS 578T breast)?
Answer: 8.98 µM

Question: And the GI50 (SK-MEL-2 melanoma)?
Answer: 12.1 µM

Question: And the TGI (SK-MEL-2 melanoma)?
Answer: 28.5 µM

Question: And the GI50 (M14 melanoma)?
Answer: 5.51 µM

Question: What about the TGI (M14 melanoma) of the same compound?
Answer: 20.9 µM

Question: And the GI50 (MDA-MB-468 breast)?
Answer: 1.22 µM

Question: What about the TGI (MDA-MB-468 breast) of the same compound?
Answer: 3.21 µM

Question: What about the GI50 (NCI/ADR-RES ovarian) of the same compound?
Answer: 5.31 µM

Question: And the TGI (NCI/ADR-RES ovarian)?
Answer: 36.6 µM

Question: What about the GI50 (CAKI-1 renal) of the same compound?
Answer: 1.31 µM

Question: What about the TGI (CAKI-1 renal) of the same compound?
Answer: 16 µM

Question: And the GI50 (UO-31 renal)?
Answer: 0.523 µM

Question: And the TGI (UO-31 renal)?
Answer: 13.8 µM

Question: What about the GI50 (MDA-MB-231 breast) of the same compound?
Answer: 4.85 µM

Question: What about the TGI (MDA-MB-231 breast) of the same compound?
Answer: 25.3 µM

Question: What about the GI50 (IGROV1 ovarian) of the same compound?
Answer: 1.05 µM

Question: And the TGI (IGROV1 ovarian)?
Answer: 4.78 µM

Question: And the GI50 (MDA-MB-435)?
Answer: 6.39 µM

Question: And the TGI (MDA-MB-435)?
Answer: 25.1 µM

Question: And the GI50 (ACHN renal)?
Answer: 1.02 µM

Question: And the TGI (ACHN renal)?
Answer: 13.5 µM

Question: What about the GI50 (SK-MEL-28 melanoma) of the same compound?
Answer: 7.95 µM

Question: And the TGI (SK-MEL-28 melanoma)?
Answer: 25.2 µM

Question: And the GI50 (KM12 colon)?
Answer: 15.4 µM

Question: What about the TGI (KM12 colon) of the same compound?
Answer: 49.3 µM

Question: And the GI50 (UACC-257 melanoma)?
Answer: 8.62 µM

Question: What about the TGI (UACC-257 melanoma) of the same compound?
Answer: 25.9 µM

Question: And the GI50 (MOLT-4 leukemia)?
Answer: 2.45 µM

Question: And the TGI (MOLT-4 leukemia)?
Answer: 7.06 µM

Question: What about the GI50 (BT-549 breast) of the same compound?
Answer: 1.77 µM

Question: What about the TGI (BT-549 breast) of the same compound?
Answer: 12.5 µM

Question: What about the GI50 (PC-3 prostate) of the same compound?
Answer: 2.84 µM

Question: And the TGI (PC-3 prostate)?
Answer: 18.2 µM

Question: And the GI50 (COLO 205 colon)?
Answer: 15.6 µM

Question: And the TGI (COLO 205 colon)?
Answer: 32.6 µM

Question: What about the GI50 (HL-60(TB) leukemia) of the same compound?
Answer: 2.22 µM

Question: What about the TGI (HL-60(TB) leukemia) of the same compound?
Answer: 22.1 µM

Question: What about the GI50 (RPMI-8226 leukemia) of the same compound?
Answer: 3.14 µM

Question: What about the TGI (RPMI-8226 leukemia) of the same compound?
Answer: 22.6 µM

Question: What about the GI50 (HCC-2998 colon) of the same compound?
Answer: 9.79 µM

Question: And the TGI (HCC-2998 colon)?
Answer: 23.1 µM

Question: What about the GI50 (TK-10 renal) of the same compound?
Answer: 1.32 µM

Question: What about the TGI (TK-10 renal) of the same compound?
Answer: 10.5 µM

Question: What about the GI50 (NCI-H460 lung) of the same compound?
Answer: 4.49 µM

Question: And the TGI (NCI-H460 lung)?
Answer: 20.2 µM

Question: What about the GI50 (SNB-19 CNS) of the same compound?
Answer: 4.73 µM

Question: And the TGI (SNB-19 CNS)?
Answer: 35 µM

Question: And the GI50 (SF-539 CNS)?
Answer: 3.75 µM

Question: What about the TGI (SF-539 CNS) of the same compound?
Answer: 18.7 µM
